From patent US20160060687A1, “METHODS AND COMPOSITIONS TO IDENTIFY, QUANTIFY, AND CHARACTERIZE TARGET ANALYTES AND BINDING MOIETIES” (CDI Laboratories, Inc., priority 2014, published 2016)
“Also recorded” adds a separate entry of the source.

Test system: MPG2
Assay: Protein-DNA DAPPL binding assay on a protein microarray of two human TF proteins and BSA, ligation products detected by PCR
Settings: array of two human TF proteins and BSA; Sanger sequencing, six of six clones as expected
From the text: A DAPPL approach was applied to establish a comprehensive screen for protein-DNA interactions. As illustrated in FIG. 19A and FIG. […] Meanwhile, a pool of DNA polynucleotides was synthesized that each contains eight random nucleotides with a CpG in the middle and two fixed sequences on both sides. After a double-stranded DNA pool was made with a Klenow reaction, bacterial enzyme SssI is used to methylate the CpG, followed by treatment with a T4 DNA polymerase to generate a 5′-overhang. This pool of 65,536 species was then incubated on the TF array, washed, and the captured DNA fragments were ligated to the address polynucleotides. In each ligated sequence, a mCpG containing 8-mer sequence is now connected to an address oligo representing the TF protein that has captured this 8-mer in the binding assay. Therefore, it is an “all-to-all” screening approach. […] The ligated products were then recovered from the slide and PCR-amplified. […] Bioinformatics analyses were performed to determine whether there was any enrichment of consensus motifs for each TF protein.
After cloning the PCR fragments, Sanger sequencing was performed to determine the PCR-amplified sequences. Six of six sequenced clones gave the expected sequences from the ligation on the array.

Substance: M62: methylated DNA motif M62 (SEQ ID NO: 10) used as probe on the TF protein microarray (DNA ATATGCATCG; methylated DNA motif, methylated positions not given here)
- capture of the methylated DNA motif by the TF spot (recovery of ligation products by PCR): captures; also recorded: successfully recovered using a PCR reaction only from the expected TF spot
